For one experiment, the system named is RS4;11 cells. The experiment is described as follows: Cell viability assay, MTS, 48 h, RS4;11. In kind it is cell-based. To be noted: Homo sapiens, RS4-11, 48 h, 48 hours, read-out: IC50 (48 hours) RS4;11. As to the method: (§1) Acute lymphoblastic leukemia cells (MOLT-4 and RS4; 11) or small cell lung cancer (NCI-H146 or simply H146) were incubated with increasing concentrations of Bcl-xL degraders for 48 h. Cell viability was measured by tetrazolium-based MTS assay.

In another experiment the test system is MOLT-4 cells. The experiment is described as follows: Cell viability assay, MTS, 48 h, MOLT-4. In kind it is cell-based. The settings on record: Homo sapiens, MOLT-4, 48 h, 48 hours, read-out: IC50 (48 hours) MOLT-4. The procedure:
as §1

The values that follow come from patent US20220169628A1 (University of Florida Research Foundation, Incorporated, priority 2019, published 2022).

Each structure is given as a SMILES string. Some results are limits rather than exact numbers.

Usually IC50 stands for the midpoint of a concentration-inhibition curve.

For the compound `Cc1ncsc1-c1ccc([C@@H](C)NC(=O)[C@@H]2C[C@@H](O)CN2C(=O)[C@@H](NC(=O)CCCCCCCCCN2CCC(c3ccc(Cl)cc3)=C(CN3CCN(c4ccc(C(=O)NS(=O)(=O)c5ccc(N[C@H](CCN6CCOCC6)CSc6ccccc6)c(S(=O)(=O)C(F)(F)F)c5)cc4)CC3)C2)C(C)(C)C)cc1` [compound 88, (2S,4R)-1-((S)-2-(10-(4-(4-chlorophenyl)-5-((4-(4-(((4-(((R)-4-morpholino-1-(phenylthio)butan-2-yl)amino)-3-((trifluoromethyl)sulfonyl)phenyl)sulfonyl)carbamoyl)phenyl)piperazin-1-yl)methyl)-3,6-dihydropyridin-1(2H)-yl)decanamido)-3,3-dimethylbutanoyl)-4-hydroxy-N—((R)-1-(4-(4-methylthiazol-5-yl)phenyl)ethyl)pyrrolidine-2-carboxamide], the values for the IC50 in the experiment on RS4;11 cells and in the experiment on MOLT-4 cells were above 500 nM and 150 to 500 nM, respectively.

As to `Cc1ncsc1-c1ccc([C@H](C)NC(=O)[C@@H]2C[C@@H](O)CN2C(=O)[C@@H](NC(=O)COCCOCCOCCOCC(=O)NCC2(C)CCC(c3ccc(Cl)cc3)=C(CN3CCN(c4ccc(C(=O)NS(=O)(=O)c5ccc(N[C@H](CCN6CCOCC6)CSc6ccccc6)c(S(=O)(=O)C(F)(F)F)c5)cc4)CC3)C2)C(C)(C)C)cc1` (stereo partly drawn) [degrader #9, N1-((4′-chloro-4-methyl-6-((4-(4-(((4-(((R)-4-morpholino-1-(phenylthio)butan-2-yl)amino)-3-((trifluoromethyl)sulfonyl)phenyl)sulfonyl)carbamoyl)phenyl)piperazin-1-yl)methyl)-2,3,4,5-tetrahydro-[1,1′-biphenyl]-4-yl)methyl)-N14-((S)-1-((2S,4R)-4-hydroxy-2-(((S)-1-(4-(4-methylthiazol-5-yl)phenyl)ethyl)carbamoyl)pyrrolidin-1-yl)-3,3-dimethyl-1-oxobutan-2-yl)-3,6,9,12-tetraoxatetradecanediamide], the values for the IC50 in the experiment with RS4;11 cells and with MOLT-4 cells were 150 to 500 nM and above 500 nM, respectively.

Regarding `Cc1ncsc1-c1ccc([C@H](C)NC(=O)[C@@H]2C[C@@H](O)CN2C(=O)[C@@H](NC(=O)COCCOCCOCCOCCOCC(=O)NCC2(C)CCC(c3ccc(Cl)cc3)=C(CN3CCN(c4ccc(C(=O)NS(=O)(=O)c5ccc(N[C@H](CCN6CCOCC6)CSc6ccccc6)c(S(=O)(=O)C(F)(F)F)c5)cc4)CC3)C2)C(C)(C)C)cc1` (stereo partly drawn) [degrader #10, N1-((4′-chloro-4-methyl-6-((4-(4-(((4-(((R)-4-morpholino-1-(phenylthio)butan-2-yl)amino)-3-((trifluoromethyl)sulfonyl)phenyl)sulfonyl)carbamoyl)phenyl)piperazin-1-yl)methyl)-2,3,4,5-tetrahydro-[1,1′-biphenyl]-4-yl)methyl)-N17-((S)-1-((2S,4R)-4-hydroxy-2-(((S)-1-(4-(4-methylthiazol-5-yl)phenyl)ethyl)carbamoyl)pyrrolidin-1-yl)-3,3-dimethyl-1-oxobutan-2-yl)-3,6,9,12,15-pentaoxaheptadecanediamide], the IC50 with RS4;11 cells and with MOLT-4 cells was above 500 nM each time.

As to `Cc1ncsc1-c1ccc([C@H](C)NC(=O)[C@@H]2C[C@@H](O)CN2C(=O)[C@@H](NC(=O)CCCCC#CC#CC2(C)CCC(c3ccc(Cl)cc3)=C(CN3CCN(c4ccc(C(=O)NS(=O)(=O)c5ccc(N[C@H](CCN6CCOCC6)CSc6ccccc6)c(S(=O)(=O)C(F)(F)F)c5)cc4)CC3)C2)C(C)(C)C)cc1` (stereo partly drawn) [degrader #11, (2S,4R)-1-((2S)-2-(9-(4′-chloro-4-methyl-6-((4-(4-(((4-(((R)-4-morpholino-1-(phenylthio)butan-2-yl)amino)-3-((trifluoromethyl)sulfonyl)phenyl)sulfonyl)carbamoyl)phenyl)piperazin-1-yl)methyl)-2,3,4,5-tetrahydro-[1,1′-biphenyl]-4-yl)nona-6,8-diynamido)-3,3-dimethylbutanoyl)-4-hydroxy-N—((S)-1-(4-(4-methylthiazol-5-yl)phenyl)ethyl)pyrrolidine-2-carboxamide], the IC50 with RS4;11 cells and in the experiment with MOLT-4 cells was above 500 nM in each case.

As to `Cc1ncsc1-c1ccc([C@H](C)NC(=O)[C@@H]2C[C@@H](O)CN2C(=O)[C@@H](NC(=O)CCCCCC#CC#CC2(C)CCC(c3ccc(Cl)cc3)=C(CN3CCN(c4ccc(C(=O)NS(=O)(=O)c5ccc(N[C@H](CCN6CCOCC6)CSc6ccccc6)c(S(=O)(=O)C(F)(F)F)c5)cc4)CC3)C2)C(C)(C)C)cc1` (stereo partly drawn) [degrader #12, (2S,4R)-1-((2S)-2-(10-(4′-chloro-4-methyl-6-((4-(4-(((4-(((R)-4-morpholino-1-(phenylthio)butan-2-yl)amino)-3-((trifluoromethyl)sulfonyl)phenyl)sulfonyl)carbamoyl)phenyl)piperazin-1-yl)methyl)-2,3,4,5-tetrahydro-[1,1′-biphenyl]-4-yl)deca-7,9-diynamido)-3,3-dimethylbutanoyl)-4-hydroxy-N—((S)-1-(4-(4-methylthiazol-5-yl)phenyl)ethyl)pyrrolidine-2-carboxamide], the IC50 in the experiment with RS4;11 cells and in the experiment on MOLT-4 cells was above 500 nM in each case.

With `Cc1ncsc1-c1ccc([C@H](C)NC(=O)[C@@H]2C[C@@H](O)CN2C(=O)[C@@H](NC(=O)CCCC(=O)N2CCN(CC3(C)CCC(c4ccc(Cl)cc4)=C(CN4CCN(c5ccc(C(=O)NS(=O)(=O)c6ccc(N[C@H](CCN7CCOCC7)CSc7ccccc7)c(S(=O)(=O)C(F)(F)F)c6)cc5)CC4)C3)CC2)C(C)(C)C)cc1` (stereo partly drawn) [degrader #14, (2S,4R)-1-((2S)-2-(5-(4-((4′-chloro-4-methyl-6-((4-(4-(((4-(((R)-4-morpholino-1-(phenylthio)butan-2-yl)amino)-3-((trifluoromethyl)sulfonyl)phenyl)sulfonyl)carbamoyl)phenyl)piperazin-1-yl)methyl)-2,3,4,5-tetrahydro-[1,1′-biphenyl]-4-yl)methyl)piperazin-1-yl)-5-oxopentanamido)-3,3-dimethylbutanoyl)-4-hydroxy-N—((S)-1-(4-(4-methylthiazol-5-yl)phenyl)ethyl)pyrrolidine-2-carboxamide], the IC50 in the experiment on RS4;11 cells lay within 50 to 150 nM; with MOLT-4 cells it was 150 to 500 nM.

In the case of `Cc1ncsc1-c1ccc([C@H](C)NC(=O)[C@@H]2C[C@@H](O)CN2C(=O)[C@@H](NC(=O)CCCCC(=O)N2CCN(CC3(C)CCC(c4ccc(Cl)cc4)=C(CN4CCN(c5ccc(C(=O)NS(=O)(=O)c6ccc(N[C@H](CCN7CCOCC7)CSc7ccccc7)c(S(=O)(=O)C(F)(F)F)c6)cc5)CC4)C3)CC2)C(C)(C)C)cc1` (stereo partly drawn) [degrader #15, (2S,4R)-1-((2S)-2-(6-(4-((4′-chloro-4-methyl-6-((4-(4-(((4-(((R)-4-morpholino-1-(phenylthio)butan-2-yl)amino)-3-((trifluoromethyl)sulfonyl)phenyl)sulfonyl)carbamoyl)phenyl)piperazin-1-yl)methyl)-2,3,4,5-tetrahydro-[1,1′-biphenyl]-4-yl)methyl)piperazin-1-yl)-6-oxohexanamido)-3,3-dimethylbutanoyl)-4-hydroxy-N—((S)-1-(4-(4-methylthiazol-5-yl)phenyl)ethyl)pyrrolidine-2-carboxamide], the IC50 with RS4;11 cells and in the experiment with MOLT-4 cells was 50 to 150 nM in each case.
